Active and inactive are the calls of the source. The rule behind the calls is not given here.
Experiments:
[1] = target: T1, Muscarinic acetylcholine receptor M3 (Homo sapiens, UniProt P20309); assay: Agonist activity at human muscarinic M3 receptor expressed in CHO cells after 30 mins by GTPgamma35S binding assay relative to acetylcholine; assay type: functional, cell-based
Target sequence in this assay (P20309 whole entry, looked up): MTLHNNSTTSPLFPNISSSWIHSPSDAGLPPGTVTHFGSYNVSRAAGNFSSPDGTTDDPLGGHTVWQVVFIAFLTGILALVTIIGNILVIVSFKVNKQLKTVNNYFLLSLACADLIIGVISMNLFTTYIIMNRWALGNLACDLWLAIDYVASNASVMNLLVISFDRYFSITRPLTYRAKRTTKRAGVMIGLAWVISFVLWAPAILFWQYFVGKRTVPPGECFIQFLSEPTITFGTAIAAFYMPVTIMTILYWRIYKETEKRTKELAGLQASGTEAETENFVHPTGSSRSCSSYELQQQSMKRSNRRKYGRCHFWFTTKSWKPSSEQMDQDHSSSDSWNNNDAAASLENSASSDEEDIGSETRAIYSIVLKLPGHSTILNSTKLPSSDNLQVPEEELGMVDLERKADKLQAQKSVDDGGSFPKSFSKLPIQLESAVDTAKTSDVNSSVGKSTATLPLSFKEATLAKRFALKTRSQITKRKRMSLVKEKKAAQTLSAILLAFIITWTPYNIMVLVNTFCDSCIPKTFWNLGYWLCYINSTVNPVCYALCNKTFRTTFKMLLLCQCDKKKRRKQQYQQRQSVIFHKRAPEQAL

[2] = target: T2, Muscarinic acetylcholine receptor M4 (Homo sapiens) (UniProt P08173); assay: Agonist activity at human muscarinic M4 receptor expressed in CHO cells after 30 mins by GTPgamma35S binding assay relative to acetylcholine; assay type: functional, cell-based
T2 sequence (whole entry): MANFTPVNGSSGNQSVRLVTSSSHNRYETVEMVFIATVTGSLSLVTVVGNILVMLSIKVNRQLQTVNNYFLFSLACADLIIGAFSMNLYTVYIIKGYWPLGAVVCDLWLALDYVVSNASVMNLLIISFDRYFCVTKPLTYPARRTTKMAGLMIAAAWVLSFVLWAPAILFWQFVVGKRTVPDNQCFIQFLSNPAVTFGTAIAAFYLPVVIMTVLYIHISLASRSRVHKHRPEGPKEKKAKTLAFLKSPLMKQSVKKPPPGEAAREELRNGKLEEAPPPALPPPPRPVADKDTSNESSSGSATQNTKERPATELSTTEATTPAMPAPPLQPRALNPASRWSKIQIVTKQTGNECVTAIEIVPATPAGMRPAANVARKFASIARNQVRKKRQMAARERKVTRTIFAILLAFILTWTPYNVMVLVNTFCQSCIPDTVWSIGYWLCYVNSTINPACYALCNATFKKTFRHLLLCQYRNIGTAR

[3] = target: T3, Muscarinic acetylcholine receptor M5 (Homo sapiens) (UniProt P08912); assay: Agonist activity at human muscarinic M5 receptor expressed in CHO cells after 30 mins by GTPgamma35S binding assay relative to acetylcholine; assay type: functional, cell-based
T3 sequence (whole entry): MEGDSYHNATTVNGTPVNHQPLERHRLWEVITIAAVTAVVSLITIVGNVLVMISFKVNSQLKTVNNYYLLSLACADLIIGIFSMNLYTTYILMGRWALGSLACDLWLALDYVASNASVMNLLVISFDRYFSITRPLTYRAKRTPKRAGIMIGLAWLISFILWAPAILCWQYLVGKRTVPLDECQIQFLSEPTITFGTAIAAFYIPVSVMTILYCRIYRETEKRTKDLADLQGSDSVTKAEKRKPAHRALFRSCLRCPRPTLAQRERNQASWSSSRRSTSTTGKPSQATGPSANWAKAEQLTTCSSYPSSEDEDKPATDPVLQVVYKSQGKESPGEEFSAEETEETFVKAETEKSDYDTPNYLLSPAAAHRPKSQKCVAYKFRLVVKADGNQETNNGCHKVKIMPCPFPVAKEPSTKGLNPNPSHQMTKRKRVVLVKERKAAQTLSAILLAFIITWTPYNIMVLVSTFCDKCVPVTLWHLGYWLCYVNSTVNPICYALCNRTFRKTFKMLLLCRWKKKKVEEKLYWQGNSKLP

[4] = target: T4, Muscarinic acetylcholine receptor M2 (Homo sapiens) (UniProt P08172); assay: Agonist activity at human muscarinic M2 receptor expressed in CHO cells after 30 mins by GTPgamma35S binding assay relative to acetylcholine; assay type: functional, cell-based
T4 sequence (whole entry): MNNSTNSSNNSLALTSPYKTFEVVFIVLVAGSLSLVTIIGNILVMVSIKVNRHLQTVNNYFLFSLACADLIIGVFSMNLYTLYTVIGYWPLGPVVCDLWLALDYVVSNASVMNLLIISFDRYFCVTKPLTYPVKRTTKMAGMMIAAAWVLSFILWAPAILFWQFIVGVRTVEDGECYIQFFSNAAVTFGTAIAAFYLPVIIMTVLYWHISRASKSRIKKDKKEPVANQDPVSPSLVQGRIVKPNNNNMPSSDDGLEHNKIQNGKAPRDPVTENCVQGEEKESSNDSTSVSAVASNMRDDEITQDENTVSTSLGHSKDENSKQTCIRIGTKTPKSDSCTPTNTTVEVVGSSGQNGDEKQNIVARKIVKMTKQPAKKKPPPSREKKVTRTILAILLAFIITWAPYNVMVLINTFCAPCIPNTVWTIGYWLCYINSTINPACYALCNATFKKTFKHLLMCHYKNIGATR

Rattus norvegicus [5] = assay: Cognitive enhancement activity in rat at 30 mg/kg, po by spatial learning test; assay type: functional, organism-based
[6] = Dissociation constant, pKa of the compound; assay type: physicochemical
Plasma = assay: Metabolic stability in rat plasma; assay type: ADME, cell-free
[7] = target: T5, Muscarinic acetylcholine receptor M2 (Homo sapiens, UniProt P08172); assay: Agonist activity at human muscarinic M2 receptor expressed in CHO cells after 30 mins by GTPgamma35S binding assay; assay type: functional, cell-based
T5 sequence (P08172 whole entry): T4 sequence (whole entry)

[8] = target: T6, Muscarinic acetylcholine receptor M4 (Homo sapiens, UniProt P08173); assay: Agonist activity at human muscarinic M4 receptor expressed in CHO cells after 30 mins by GTPgamma35S binding assay; assay type: functional, cell-based
T6 sequence (P08173 whole entry): T2 sequence (whole entry)

[9] = target: T7, Muscarinic acetylcholine receptor M1 (Homo sapiens, UniProt P11229); assay: Agonist activity at human muscarinic M1 receptor expressed in CHO cells after 30 mins by GTPgamma35S binding assay; assay type: functional, cell-based
T7 sequence (P11229 whole entry): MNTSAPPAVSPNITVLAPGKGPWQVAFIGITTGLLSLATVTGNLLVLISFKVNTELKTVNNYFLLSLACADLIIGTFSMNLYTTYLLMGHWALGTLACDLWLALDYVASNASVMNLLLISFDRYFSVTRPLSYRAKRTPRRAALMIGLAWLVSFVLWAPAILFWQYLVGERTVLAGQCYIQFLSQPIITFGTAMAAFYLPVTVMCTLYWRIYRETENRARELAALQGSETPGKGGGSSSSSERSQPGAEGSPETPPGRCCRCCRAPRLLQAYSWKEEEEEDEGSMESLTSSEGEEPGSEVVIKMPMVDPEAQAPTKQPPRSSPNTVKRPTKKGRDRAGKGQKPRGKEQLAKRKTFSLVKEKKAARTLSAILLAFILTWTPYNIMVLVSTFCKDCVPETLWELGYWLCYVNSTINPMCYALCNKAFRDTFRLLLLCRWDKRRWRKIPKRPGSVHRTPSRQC

[10] = Partition coefficient, log D of the compound; assay type: physicochemical; details: octanol/water
[11] = Oral bioavailability in rat; assay type: ADME, organism-based; details: in vivo
[12] = Drug uptake in rat whole brain at 10 mg/kg, po measured at 3 hrs; assay type: ADME, organism-based; details: read-out: Drug uptake
Rattus norvegicus [13] = assay: AUC (0 to 8 hrs) in rat at 10 mg/kg, po; assay type: ADME, organism-based; set-up: time < 8 hr, dose 10 mg/kg, route oral; details: in vivo
[14] = target: T1, Muscarinic acetylcholine receptor M3; assay: Agonist activity at human muscarinic M3 receptor expressed in CHO cells after 30 mins by GTPgamma35S binding assay; assay type: functional, cell-based
Target sequence in this assay (P20309 whole entry): as the sequence (P20309 whole entry, looked up) above

[15] = target: T8, Muscarinic acetylcholine receptor M5 (Homo sapiens, UniProt P08912); assay: Agonist activity at human muscarinic M5 receptor expressed in CHO cells after 30 mins by GTPgamma35S binding assay; assay type: functional, cell-based
T8 sequence (P08912 whole entry): T3 sequence (whole entry)

[16] = target: T4, Muscarinic acetylcholine receptor M2 (Homo sapiens); assay: Agonist activity at human muscarinic M2 receptor expressed in CHO cells after 30 mins by GTPgamma35S binding assay relative to oxotremorine-M; assay type: functional, cell-based
[17] = target: T9, Muscarinic acetylcholine receptor M1 (Homo sapiens) (UniProt P11229); assay: Agonist activity at human muscarinic M1 receptor expressed in CHO cells after 30 mins by GTPgamma35S binding assay relative to oxotremorine-M; assay type: functional, cell-based
T9 sequence (whole entry): T7 sequence (P11229 whole entry)

[18] = target: T2, Muscarinic acetylcholine receptor M4 (Homo sapiens); assay: Agonist activity at human muscarinic M4 receptor expressed in CHO cells after 30 mins by GTPgamma35S binding assay relative to oxotremorine-M; assay type: functional, cell-based
[19] = Drug degradation in rat plasma assessed as formamidine hydrolysis after 4 hrs; assay type: ADME, cell-free; details: read-out: Drug degradation
Rattus norvegicus [20] = assay: Cognitive enhancement activity in po dosed rat by 8-arm radial maze test; assay type: functional; details: read-out: MED
Rattus norvegicus [21] = assay: AUC (0 to 6 hrs) in rat at 10 mg/kg, po; assay type: ADME, organism-based; set-up: time < 6 hr, dose 10 mg/kg, route oral; details: in vivo
[22] = Oral bioavailability in monkey; assay type: ADME, organism-based, Macaca mulatta; details: rhesus monkey, in vivo
[23] = target: T4, Muscarinic acetylcholine receptor M2 (Homo sapiens); assay: Agonist activity at human muscarinic M2 receptor expressed in CHO cells at 280 nM after 30 mins by GTPgamma35S binding assay relative to control; assay type: functional, cell-based

Row | SMILES | Efficacy [1] | Efficacy [2] | Efficacy [3] | Efficacy [4] | pKa [6] | EC50 [7] | EC50 [8] | EC50 [9] | concentration at 3 h [12] | AUC (Rattus norvegicus [13]) | EC50 ([14]; cho) | Efficacy [16] | EC50 ([15]; cho) | Efficacy [17] | Efficacy [18] | other results
1 | CCn1nnc(C2=CCCN(C)C2)n1 | < 20% | < 20% | < 20% | 49.2% |  |  |  |  |  |  |  |  |  |  |  | 
2 | CN1CCCC/C1=N\c1ccc2c(c1)[C@@H](NC(=O)c1ccc(Br)cc1)[C@H](O)C2 |  | 34% |  | 28% | 9.9 | 24 nM | 113 nM | 80 nM | < 40 ng/g | 506 ng·h/g |  |  |  |  |  | Activity (Rattus norvegicus [5]): Active; Stability (Plasma): Stable; logD [10]: 1.04; bioavailability [11]: 68%
3 | CC(=O)OCC[N+](C)(C)C | 117% | 93.4% | 110% |  |  |  |  |  |  |  |  |  |  |  |  | 
4 | C#CCO[C@H]1CN2CCC1CC2 [TALSACLIDINE] | 26.1% | 22.2% | 23.7% | 94.4% |  | 849 nM | 844 nM | 820 nM |  |  |  |  |  |  |  | EC50 ([14]; read-out: EC50): 2700 nM; EC50 ([15]; read-out: EC50): 422 nM
5 | CCCCCCOc1nsnc1C1=CCCN(C)C1 | < 20% | 48.7% | 25.9% | 83.5% |  |  |  |  |  |  |  |  |  |  |  | 
6 | C/C(=N\c1ccc2c(c1)[C@@H](NC(=O)c1ccc(Br)cc1)[C@H](O)C2)N(C)c1ccc(F)cc1 |  |  |  |  |  |  |  | 118 nM | 891 ng/g | 4681 ng·h/g | Not Active | < 20% | Not Active | 31.5% | < 20% | 
7 | CO/N=C(\C#N)[C@H]1CN2CCC1CC2 [SABCOMELINE] | 28.3% | 21.3% | 38.9% | 87.7% |  | 62.1 nM | 214 nM | 63.6 nM |  |  |  |  |  |  |  | EC50 ([14]; read-out: EC50): 117 nM; EC50 ([15]; read-out: EC50): 123 nM
8 | C/C(=N\c1ccc2c(c1)[C@@H](NC(=O)c1ccc(Br)cc1)[C@H](O)C2)N1CCCCC1 |  |  |  |  |  |  |  |  |  |  |  |  |  |  |  | metabolised at 4 h [19]: 5%
9 | C/C(=N\c1ccc2c(c1)[C@@H](NC(=O)c1ccc(-c3ccccc3)cc1)[C@H](O)C2)N(C)Cc1ccc(F)cc1 |  |  |  |  | 8.3 | 693 nM | 1060 nM | 22.8 nM | 141 ng/g |  | Not Active | 34.6% | Not Active | 110% | 29.7% | minimal effective dose (Rattus norvegicus [20]): 1 mg/kg; logD [10]: 2.3; bioavailability [11]: 32%; AUC (Rattus norvegicus [21]): 533 ng·h/g; bioavailability [22]: 46%
10 | O=C(N[C@@H]1c2cc(/N=C/N3CCCC3)ccc2C[C@H]1O)c1ccc(Br)cc1 |  |  |  |  |  |  |  |  |  |  |  |  |  |  |  | metabolised at 4 h [19]: 50%; Emax [23]: 80%
11 | C/C(=N\c1ccc2c(c1)[C@@H](NC(=O)c1ccc(Br)cc1)[C@H](O)C2)Nc1ccc(F)cc1 |  |  |  |  | 8.2 | 749 nM | 1110 nM | 51 nM | 147 ng/g | 1369 ng·h/g | Not Active | 25.2% | Not Active | 79.4% | 23.1% | 
12 | C/C(=N\c1ccc2c(c1)[C@@H](NC(=O)c1ccc(Br)cc1)[C@H](O)C2)NCc1ccc(F)cc1 |  |  |  |  | 8.49 | 71.8 nM | 115 nM | 20.9 nM | 64 ng/g | 634 ng·h/g | Not Active | 31.8% | Not Active | 89.9% | 33.5% | logD [10]: 2.01

From ChEMBL document CHEMBL3616390, “Design and synthesis of N-[6-(Substituted Aminoethylideneamino)-2-Hydroxyindan-1-yl]arylamides as selective and potent muscarinic M₁ agonists” (Bioorg Med Chem Lett, 2015)
